The subject of one data set is PC-3 cell line. Nature of the data set: MTT cytotoxicity assay in PC-3. As for the experimental part:
The results are tabulated as IC50 values. All experiments were independently performed at least three times and the values were calculated after 72 hours exposure (drug concentrations of 2, 5, 7 and 10 μM).
PC-3 cells were seeded in 96-well plates (Millipore, Eschborn, Germany) at a density of 5 × 10^3 cells per well. The samples were incubated at 37 °C under 5% CO2 overnight prior to the addition of the compounds. Compounds were diluted in complete medium. After 3 days of incubation, 10 μL MTT solution (5 mg/mL in PBS) was added to the cells in each well and these were stored for an additional 4 h at 37 °C. […] The percentage of viable cells was calculated to obtain IC50-values.
PC-3 are human tumorigenic and metastatic prostate cancer cells and these were obtained from American Type Culture Collection (ATCC, Manassas, VA, USA) (passage 36).

Another data set concerns CCRF-CEM. Nature of the data set: MTT cytotoxicity assay (NCI) in CCRF-CEM. In kind it is cell-based, human. The settings on record: 72 h; for TGI CCRF-CEM: dose that completely inhibits cell growth; for LD50 CCRF-CEM: dose that kills 50% of cells; for GI50: Homo sapiens, CCRF-CEM, dose that inhibits 50% of cell growth, read-out: GI50 CCRF-CEM. As to the method: (§1) In order to investigate the effect of the active compounds in more detail, we examined the activity on proliferation in other cancer cell lines. […] Tests were carried out in the Department of Health Science, Public University of Navarra against a panel of four human tumour cell lines: lung (HTB-54), colon (HT-29), leukaemia (CCRF-CEM) and breast adenocarcinoma (MCF-7). Cytotoxicity assays were performed based on the reactivity of MTT [3-(4,5-dimethylthiazol-2-yl)-2,5-diphenyl-tetrazolium bromide], as described by NCI [39]. […] Doxorubicin was used as a control. As guidance with regard to selectivity, all of the compounds were further examined for toxicity in a mammary gland cell culture derived from non-malignant cells (184B5). Drug concentrations ranged from 0.01 to 100 μM.
(§2) The cytotoxic effects of each substance were tested at five different doses between 0.01 and 100 μM. Each substance was initially dissolved in DMSO at a concentration of 0.1 M, and serial dilutions were prepared using culture medium. The plates with cells from the different lines, to which medium containing the substance under test were added, were incubated for 72 h at 37 °C in a humidified atmosphere containing 5% CO2. European Collection of Cell Cultures (ECACC) or American Type Culture Collection (ATCC) provided human tumour cell lines. Four cell lines were used: one human lymphocytic leukemia (CCRF-CEM) and three human solid tumours, one colon carcinoma (HT-29), one lung carcinoma (HTB-54) and one breast adenocarcinoma (MCF-7). CCRF-CEM, HT-29 and HTB-54 cells were grown in RPMI 1640 medium (Life Technologies, Carlsbad, CA, USA) supplemented with 10% foetal calf serum, 2 mM L-glutamine, 100 units/mL penicillin, 100 μg/mL streptomycin and 10 mM HEPES buffer (pH = 7.4). MCF-7 cells were grown in EMEM medium (Clonetics) supplemented with 10% foetal calf serum, 2 mM L-glutamine, 100 units/mL penicillin and 100 μg/mL streptomycin. 184B5 cells were grown Hams F-12/DMEM (50:50) supplemented as described by Li et al.. Cytotoxicity was then determined by the MTT method. […] Data were obtained from at least three independent experiments performed in quadruplicate.

For the next data set, the system named is HTB-54. Nature of the data set: MTT cytotoxicity assay (NCI) in HTB-54. In kind it is cell-based, human. Particulars: 72 h; for TGI HTB-54: dose that completely inhibits cell growth; for LD50 HTB-54: dose that kills 50% of cells; for GI50: Homo sapiens, HTB-54, dose that inhibits 50% of cell growth, read-out: GI50 HTB-54. As for the experimental part: as §1, §2

In another data set the test system is HT-29. Nature of the data set: MTT cytotoxicity assay (NCI) in HT-29. In kind it is cell-based, human. The settings on record: 72 h; for TGI HT-29: dose that completely inhibits cell growth; for LD50 HT-29: dose that kills 50% of cells; for GI50: Homo sapiens, HT-29, dose that inhibits 50% of cell growth, read-out: GI50 HT-29. As for the experimental part:
as §1, §2

The next data set concerns MCF-7. The experiment in a line: MTT cytotoxicity assay (NCI) in MCF-7. In kind it is cell-based, human. The settings on record: 72 h; for TGI MCF-7: dose that completely inhibits cell growth; for LD50 MCF-7: dose that kills 50% of cells; for GI50: Homo sapiens, MCF7, dose that inhibits 50% of cell growth, read-out: GI50 MCF-7. As to the method:
as §1, §2

Data set [1] in a line: MTT toxicity assay in non-malignant mammary gland cells 184B5. It is filed as cell-based. The settings on record: human. As for the experimental part:
as §1, §2

Another data set concerns 184B5. The description is as above. Particulars: for LD50 184B5 / TGI 184B5: 72 h; for LD50 184B5: non-malignant cells, dose that kills 50% of cells; for TGI 184B5: human. In kind it is cell-based. As to the method: as §1, §2
The mark [2] stands for this setting: Homo sapiens, PC-3, 72 h, read-out: IC50 PC-3 cell line.
Setting [3] is: Homo sapiens, PC-3, read-out: IC50 (cytotoxic activity in PC-3 cell line).
The mark [4] stands for this setting: 72 h exposure, MTT, drug concentrations 2, 5, 7 and 10 μM, NE = no effect is observed.
Where [5] appears, read: read-out: IC50 PC-3 cell line, 72 h exposure, MTT, drug concentrations 2, 5, 7 and 10 μM, NE = no effect is observed.

Where two headings read alike, the source gives them in different places.

As for `N#Cc1ccc(C(=O)[Se]CC(=O)O)cc1` [Compound 2, (4-cyanobenzoylselenyl)acetic acid], the IC50 in the data set on PC-3 cell line (setting [2]) was 10 µM. The IC50 in the data set with PC-3 cell line (setting [3]) came to 10 µM. Further, in the data set on CCRF-CEM, the “TGI CCRF-CEM” value is over 100 µM, the “LD50 CCRF-CEM” value was over 100 µM and the GI50 is over 100 µM. Also, in the data set with HTB-54, the “TGI HTB-54” value was determined as 9.91 µM, the “LD50 HTB-54” value is over 100 µM and the GI50 was 1.9 µM. Also, in the data set on HT-29, the “TGI HT-29” value was 51.95 µM, the “LD50 HT-29” value was over 100 µM and the GI50 was 8.95 µM. In the data set on MCF-7, the “TGI MCF-7” value worked out at 6.54 µM, the “LD50 MCF-7” value amounted to 23.12 µM and the GI50 is 2.64 µM. This molecule had a GI50 at 72 h in data set [1] of 2.29 µM. For the same molecule, in the data set on 184B5, the “LD50 184B5” value is 78.91 µM and the “TGI 184B5” value was determined as 20.14 µM. Besides, in the data set on 184B5 (LD50 in 184B5 divided by LD50 in MCF-7), the “selectivity index (184B5/MCF-7 LD50 ratio)” value was determined as 3.4.
Turning to `O=C(O)C[Se]C(=O)c1ccc2ccccc2c1` [Compound 17, (2-naphthoylselenyl)acetic acid], the IC50 in the data set on PC-3 cell line (setting [2]) was over 10 µM.
For `Cc1ccc(C(=O)[Se]CC(=O)O)cc1` [Compound 5, (4-methylbenzoylselenyl)acetic acid], the IC50 in the data set with PC-3 cell line (setting [2]) and in the data set on PC-3 cell line (setting [3]) was over 10 µM each time.
With “(4-methoxyphenylselenyl)acetic acid [Compound 7]”, the “IC50 PC-3 cell line” value in the data set with PC-3 cell line (setting [4]) was “inactive”. In addition, the IC50 is over 10 µM in the data set on PC-3 cell line (read-out: IC50 (cytotoxic activity in PC-3 cell line), as repeated in Table 5, NE = no effect) and over 10 µM in the data set on PC-3 cell line (setting [5]).
Turning to `O=C(O)C[Se]C(=O)c1cnc2ccccc2c1` [Compound 26, (3-quinoloylselenyl)acetic acid], in the data set with PC-3 cell line (setting [2]), the IC50 was over 10 µM.
Consider `O=C(O)C[Se]C(=O)C(c1ccccc1)c1ccccc1` [Compound 18, (diphenylacetylselenyl)acetic acid], for which the IC50 in the data set on PC-3 cell line (setting [2]) is over 10 µM.
With `O=C(O)C[Se]C(=O)c1cccs1` [Compound 23, (2-thienoylselenyl)-acetic acid], the IC50 in the data set on PC-3 cell line (setting [2]) and in the data set with PC-3 cell line (setting [3]) was over 10 µM throughout.
Take `O=C(O)C[Se]C(=O)c1ccc(C(F)(F)F)cc1` [Compound 3, (4-trifluoromethylbenzoylselenyl)acetic acid]: the IC50 with PC-3 cell line (setting [2]) and in the data set on PC-3 cell line (setting [3]) was over 10 µM throughout.
With `O=C(O)C[Se]C(=O)c1cnccn1` [Compound 24, (pyrazinoylselenyl)acetic acid], the IC50 in the data set on PC-3 cell line (setting [2]) and in the data set with PC-3 cell line (setting [3]) was over 10 µM throughout.
Take `O=C(O)C[Se]C(=O)c1cccnc1Cl` [Compound 21, (3-(2-chloro)-pyridoylselenyl)acetic acid]: the IC50 in the data set on PC-3 cell line (setting [2]) was determined as 10 µM. In addition, the IC50 in the data set with PC-3 cell line (setting [3]) is 10 µM. For the same molecule, in the data set on CCRF-CEM, the “TGI CCRF-CEM” value is over 100 µM, the “LD50 CCRF-CEM” value was over 100 µM and the GI50 was over 100 µM. In addition, in the data set with HTB-54, the “TGI HTB-54” value is over 100 µM, the “LD50 HTB-54” value is over 100 µM and the GI50 was determined as 11.8 µM. Further, in the data set with HT-29, the “TGI HT-29” value is 60.94 µM, the “LD50 HT-29” value was over 100 µM and the GI50 worked out at 7.53 µM. Moreover, in the data set on MCF-7, the “TGI MCF-7” value turned out to be 8.27 µM, the “LD50 MCF-7” value was determined as 89.21 µM and the GI50 is 0.003 µM. The molecule also came in with a GI50 at 72 h in data set [1] of 0.05 µM. Besides, in the data set on 184B5, the “LD50 184B5” value is 7.20 µM and the “TGI 184B5” value is 1.89 µM.
Regarding `O=C(O)C[Se]C(=O)c1ccccc1Br` [Compound 9, (2-bromobenzoylselenyl)acetic acid], the IC50 with PC-3 cell line (setting [2]) and with PC-3 cell line (setting [3]) was over 10 µM in each case.
With `O=C(O)C[Se]C(=O)c1ccc2c(c1)OCO2` [Compound 16, (3,4-methylenedioxy-benzoylselenyl) acetic acid], the IC50 with PC-3 cell line (setting [2]) and in the data set on PC-3 cell line (setting [3]) was over 10 µM throughout.
In the case of `COc1cccc2c1C(=O)c1c(O)c3c(c(O)c1C2=O)C[C@@](O)(C(=O)CO)C[C@@H]3O[C@H]1C[C@H](N)[C@H](O)[C@H](C)O1` [Doxorub., doxorubicin, reference compound], in the data set with CCRF-CEM, the “TGI CCRF-CEM” value came to 0.071 µM, the “LD50 CCRF-CEM” value was determined as 0.29 µM and the GI50 came out at 0.033 µM. For the same molecule, in the data set on HTB-54, the “TGI HTB-54” value was found to be 1.25 µM, the “LD50 HTB-54” value turned out to be 3.45 µM and the GI50 was under 0.01 µM. In the data set on MCF-7, the “TGI MCF-7” value is over 100 µM, the “LD50 MCF-7” value is over 100 µM and the GI50 stood at 0.88 µM.
For the molecule `O=C(O)C[Se]C(=O)c1ccccc1I` [Compound 10, (2-iodobenzoylselenyl)acetic acid], the IC50 with PC-3 cell line (setting [2]) and in the data set with PC-3 cell line (setting [3]) was over 10 µM each time.
As for `O=C(O)C[Se]C(=O)c1ccccc1Cl` [Compound 8, (2-chlorobenzoylselenyl)acetic acid], the IC50 with PC-3 cell line (setting [2]) and in the data set with PC-3 cell line (setting [3]) was over 10 µM in each case.
As for `O=C(O)C[Se]C(=O)c1cc(Cl)cc(Cl)c1` [Compound 13, (3,5-dichlorobenzoylselenyl)acetic acid], the IC50 with PC-3 cell line (setting [2]) and in the data set on PC-3 cell line (setting [3]) was over 10 µM throughout.
In the case of `CCCSc1ncccc1C(=O)[Se]CC(=O)O` [Compound 22, (3-(2-propylthio)pyridoylselenyl)acetic acid], the IC50 with PC-3 cell line (setting [2]) and with PC-3 cell line (setting [3]) was over 10 µM throughout.
Regarding `O=C(O)C[Se]C(=O)c1ccc2ccccc2n1` [Compound 25, (2-quinoloylselenyl)acetic acid], the IC50 in the data set on PC-3 cell line (setting [2]) is over 10 µM.
With `O=C(O)C[Se]C(=O)c1ccncc1` [Compound 19, (4-pyridoylselenyl)acetic acid], the IC50 in the data set with PC-3 cell line (setting [2]) and in the data set with PC-3 cell line (setting [3]) was over 10 µM in each case.
On to `CC(C)(C)c1ccc(C(=O)[Se]CC(=O)O)cc1` [Compound 6, (4-tert-butylbenzoyl-selenyl)acetic acid], for which the half-inhibitory concentration (IC50) in the data set with PC-3 cell line (setting [2]) and with PC-3 cell line (setting [3]) was over 10 µM each time.
Regarding `O=C(O)C[Se]C(=O)c1ccc(Cl)cc1` [Compound 4, (4-chlorobenzoylselenyl)acetic acid], the IC50 in the data set on PC-3 cell line (setting [2]) and in the data set on PC-3 cell line (setting [3]) was over 10 µM in each case.
Consider `O=C(O)C[Se]C(=O)c1cccnc1` [Compound 20, (3-pyridoylselenyl)acetic acid], for which the IC50 in the data set with PC-3 cell line (setting [2]) and in the data set on PC-3 cell line (setting [3]) was over 10 µM in each case.
Regarding “(3-phenyl-propanonylselenyl)acetic acid [Compound 12]”, the IC50 in the data set with PC-3 cell line (setting [5]) was over 10 µM.
`COc1cc(C(=O)[Se]CC(=O)O)cc(OC)c1OC` [Compound 15, (3,4,5-trimethoxybenzoylselenyl)acetic acid]: the “IC50 PC-3 cell line” value with PC-3 cell line (setting [4]) is given as “suppression of the antitumour activity”. Also, the IC50 in the data set on PC-3 cell line (setting [2]) and in the data set on PC-3 cell line (setting [3]) was over 10 µM throughout.
